# According to US20240174690A1, “ANNULATED 2-AMINO-3-CYANO THIOPHENES AND DERIVATIVES FOR THE TREATMENT OF CANCER” (BOEHRINGER INGELHEIM INTERNATIONAL GMBH, priority 2021, published 2024):
# pIC50: −log10 of the molar value.
# Experiments:
# [1] = system: SK-CO-1 cells; test: SK-CO-1 CTG proliferation assay (120 h) (CRC, G12V); format: cell-based; conditions: Homo sapiens; SK-CO-1 cells (CRC, G12V), CTG 120 h
# Method in brief: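 SK-CO-1 colorectal cells (KRAS G12V), 500 per well in EMEM + 10% FCS, dosed with compound the day after seeding and grown 120 h at 37 °C. Viability by CellTiter-Glo luminescence as percent of DMSO control; IC50 from four-parameter non-linear regression.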
# [2] = Metabolic (microsomal) stability assay, human liver microsomes (HLM); format: in vitro ADME; conditions: predicted clearance as percent of liver blood flow, 1 μM
# Method in brief: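 LC-MS/MS tracked parent disappearance at 0, 5, 15, 30 and 60 min in NADPH-initiated incubations with 1 mg/mL human microsomal protein and 1 μM compound at 37°C, pH 7.5. First-order fits gave intrinsic clearance, which was scaled up and reported as % QH. NADPH-free controls were also run.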
# [3] = system: AsPC-1 cells; test: AsPC-1 CTG proliferation assay (120 h) (pancreatic cancer, G12D); format: cell-based; conditions: Homo sapiens, ASPC1
# Method in brief: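 AsPC-1 cells (KRAS G12D), 2000/well in RPMI with 10% FCS, seeded overnight, then treated with compound for 120 h at 37 °C. Viability by CellTiter-Glo luminescence as percent of DMSO control. IC50 from a four-parameter non-linear fit.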
# [4] = Plasma protein binding assay (PPB), equilibrium dialysis, 10% FCS in PBS; format: in vitro ADME; conditions: bovine, read-out: PPB 10% FCS (% fu)
# Method in brief: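 Equilibrium dialysis (5-10 kg/mol cut-off membrane) of 1-10 μmol/L test compound in 10% FCS/PBS against PBS with or without dextran, 3-5 h at 37° C. Compound in each chamber quantified by LC-MS after protein precipitation; fu calculated from Cserum and Cbuffer.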
# [5] = system: SAS cells; test: SAS CTG proliferation assay (120 h) (HNSCC, wt amplified); format: cell-based
# Method in brief: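 SAS cells plated at 300 per well in DMEM:F12 with 10% FCS and left overnight, then given compounds acoustically. After 120 h exposure, viability read by CellTiter-Glo as percent of DMSO control. IC50 from four-parameter non-linear regression.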
SMILES,pIC50 [1],HLM QH [2],pIC50 [3],fraction unbound [4],pIC50 [5]
C[C@H](Oc1cc(N2CCNC[C@]23CCOC3)nc(-c2onc3c2CCC[C@@]32CCCc3sc(N)c(C#N)c32)n1)[C@@H]1CCCN1C [I-12],6.15,36%,6.63,0.46,6.66
C[C@H](Oc1cc(N2CCNC[C@@]23CCOC3)nc(-c2onc3c2CCC[C@@]32CCCc3sc(N)c(C#N)c32)n1)[C@@H]1CCCN1C [I-13],5.67,<24%,5.81,0.21,6.53
C[C@H]1CNCCCN1c1nc(-c2onc3c2CCC[C@@]32CCCc3sc(N)c(C#N)c32)cc(C(F)(F)F)n1 [I-15],,38%,,0.08,
C[C@H](Oc1cc(-c2cn(C)nn2)nc(-c2onc3c2CCC[C@@]32CCCc3sc(N)c(C#N)c32)n1)[C@@H]1CCCN1C [I-16],,31%,,0.55,7.11
CO[C@@H]1C[C@@H]([C@H](C)Oc2cc(-c3cnn(C)n3)nc(-c3onc4c3CCC[C@@]43CCCc4sc(N)c(C#N)c43)n2)N(C)C1 [I-17],6.45,56%,5.01,0.24,6.62
C[C@H](Oc1cc(-n2cncn2)nc(-c2onc3c2CCC[C@@]32CCCc3sc(N)c(C#N)c32)n1)[C@@H]1CCCN1C [I-18],6.63,48%,5.15,0.61,7.14
C[C@H](Oc1cc(-n2cc(-c3cncs3)nn2)nc(-c2noc3c2CCC[C@@]32CCCc3sc(N)c(C#N)c32)n1)[C@@H]1CCCN1C [II-125],6.92,<24%,5.86,0.13,6.74
C[C@H](Oc1cc(-n2cnc(C(=O)N(C)C)c2)nc(-c2noc3c2CCC[C@@]32CCCc3sc(N)c(C#N)c32)n1)[C@@H]1CCCN1C [II-126],6.86,25%,4.99,0.38,6.72
C[C@H](Oc1cc(-c2ccn([C@H]3CCOC3)n2)nc(-c2noc3c2CCC[C@@]32CCCc3sc(N)c(C#N)c32)n1)[C@@H]1CCCN1C [II-127],7.05,<24%,5.56,0.08,7.74
C[C@H](Oc1cc(-n2nccc2-c2ccncc2)nc(-c2noc3c2CCC[C@@]32CCCc3sc(N)c(C#N)c32)n1)[C@@H]1CCCN1C [II-131],7.05,<24%,5.45,0.01,6.21

# Continued by rising pIC50 [1], values first:
pIC50 [1],HLM QH [2],pIC50 [3],fraction unbound [4],SMILES,pIC50 [5]
7.15,,5.47,0.1,C[C@H](Oc1cc(-n2cncc3ccnc2-3)nc(-c2onc3c2CCC[C@@]32CCCc3sc(N)c(C#N)c32)n1)[C@@H]1CCCN1C [I-14],7.60
7.18,<24%,5.68,0.23,C[C@H](Oc1cc(-c2ccn(C[C@H]3CCOC3)n2)nc(-c2noc3c2CCC[C@@]32CCCc3sc(N)c(C#N)c32)n1)[C@@H]1CCCN1C [II-129],7.74
7.25,<24%,5.52,0.48,C[C@H](Oc1cc(N2Cc3cnn(C)c3C2)nc(-c2onc3c2CCC[C@@]32CCCc3sc(N)c(C#N)c32)n1)[C@@H]1CCCN1C [I-19],6.66
7.33,<24%,5.68,0.06,C[C@H](Oc1cc(-c2ccn(Cc3ncco3)n2)nc(-c2noc3c2CCC[C@@]32CCCc3sc(N)c(C#N)c32)n1)[C@@H]1CCCN1C [II-128],7.34
7.54,<24%,5.96,0.03,C[C@H](Oc1cc(-n2ccc(-c3cnccn3)n2)nc(-c2noc3c2CCC[C@@]32CCCc3sc(N)c(C#N)c32)n1)[C@@H]1CCCN1C [II-130],6.75
7.74,36%,5.29,0.31,C[C@H](Oc1cc(-n2cc(C(=O)N(C)C)nn2)nc(-c2noc3c2CCC[C@@]32CCCc3sc(N)c(C#N)c32)n1)[C@@H]1CCCN1C [II-132],6.50
